According to patent US20070259908A1, “Mitochondria Activators” (KANEKA CORPORATION, priority 2004, published 2007):

Key:
[1] = system: tissue of the pancreatic islets of Langerhans; experiment: Insulin secretion from cultured tissue of the pancreatic islets of Langerhans (ELISA), as index of mitochondria-activating activity / ATP production; assay type: cell-based, rat; details: for insulin concentration (secretion amount of insulin from tissue of the islets of Langerhans) / insulin concentration, value in parentheses (control = 100): 0.1 μg/ml of each test substance in medium, culture for 1 hr; for insulin concentration (secretion amount of insulin from tissue of the islets of Langerhans): ELISA, control 43 ± 8; for insulin concentration, value in parentheses (control = 100): relative to control (100); for increase of the concentration of insulin in the medium: addition amount of 0.1 μg/ml, versus control
Description: Therefore, a tissue of the pancreatic islets of Langerhans, which reacts with ATP to secrete insulin, was used to evaluate the mitochondria-activating activity of a test substance, with the insulin secretion as an index. As the tissue of the pancreatic islets of Langerhans, a culture kit (manufactured by Hokudo Co., Ltd) prepared from a rat was used. […] In the same manner as in Example 1, a tissue of the pancreatic islets of Langerhans was used to evaluate the mitochondria-activating activity of a test substance, with the insulin secretion as an index. As the tissue of the pancreatic islets of Langerhans, a culture kit (manufactured by Hokudo Co., Ltd) prepared from a rat was used.

[2] = system: kidney; details: reported in patent reference 5; narrow safety margin; cited from earlier work
[3] = system: rats; details: consecutive administration of 1200 mg/Kg/day for 52 weeks; cited from earlier work

| SMILES | insulin concentration (secretion amount of insulin from tissue of the islets of Langerhans) [1] [ng/mL] | insulin concentration, value in parentheses (control = 100) [1] | increase of the concentration of insulin in the medium [1] [fold] | toxicity to kidney [2] | toxic effect in chronic toxicity test [3] |
| --- | --- | --- | --- | --- | --- |
| O=C(O)c1cc(C(=O)O)c2c(n1)C(=O)C(=O)c1cc(C(=O)O)[nH]c1-2 [pyrroloquinoline quinone, 2,7,9-tricarboxy-1H-pyrrolo[2,3-f]quinoline-4,5-dione] | 220 ± 56 | 511 | 5.1 | strong toxicity to kidney | – |
| COC1=C(OC)C(=O)C(C/C=C(\C)CC/C=C(\C)CC/C=C(\C)CC/C=C(\C)CC/C=C(\C)CC/C=C(\C)CC/C=C(\C)CC/C=C(\C)CC/C=C(\C)CCC=C(C)C)=C(C)C1=O [oxidized coenzyme Q10, reference compound] | 329 ± 85 | 765 | 7.7 | – | – |
| COc1c(O)c(C)c(C/C=C(\C)CC/C=C(\C)CC/C=C(\C)CC/C=C(\C)CC/C=C(\C)CC/C=C(\C)CC/C=C(\C)CC/C=C(\C)CC/C=C(\C)CCC=C(C)C)c(O)c1OC [reduced coenzyme Q10] | 360 ± 78 | 837 | 8.3 | – | – |
| COC1=C(OC)C(=O)C(C/C=C(\C)CC/C=C(\C)CC/C=C(\C)CC/C=C(\C)CC/C=C(\C)CC/C=C(\C)CC/C=C(\C)CC/C=C(\C)CC/C=C(\C)CCC=C(C)C)=C(C)C1=O [coenzyme Q10] | – | – | – | – | absence of toxic effect |
| O=C(O)CC(O)(CC(=O)O)C(=O)O [citric acid] | 2030 ± 391 | 4720 | 47 | – | – |
